According to patent publication US20020081661A1 (Synaptic Pharmaceutical Corporation, priority 1992, published 2002):
Like-named read-outs stand apart in the source and are kept apart here.

Key:
[1] = target: T1, human 5-HT4 receptor S10-95 (CG-17) (Homo sapiens, UniProt Q13639); test: [3H]5-HT displacement binding, human CG-17 clone
T1 construct: Isolation of the full length human S10-95 cDNA clone; expressed in transfected cells; host or cells: COS-7 (transient, DEAE-dextran)
Experimental: (§2) Membrane Preparation: Membranes were prepared from transiently transfected COS-7 cells which were grown to 100% confluence. The cells were washed twice with phosphate-buffered saline, scraped from the culture dishes into 5 ml of ice-cold phosphate-buffered saline, and centrifuged at 200×g for 5 min at 4′. The pellet was resuspended in 2.5 ml of ice-cold Tris buffer (20 mM Tris -HCl, pH 7.4 at 23°, 5 mM EDTA), and homogenized by a Wheaton tissue grinder. The lysate was subsequently centrifuged at 200×g for 5 min at 4° to pellet large fragments which were discarded. The supernatant was collected and centrifuged at 40,000×g for 20 min at 4°. The pellet resulting from this centrifugation was washed once in ice-cold Tris wash buffer and finally resuspended in a final buffer containing 50 mM Tris-HCl and 0.5 mM EDTA, pH 7.4 at 23°. Membrane preparations were kept on ice and utilized within two hr for the radioligand binding assays.
(§3) The binding profile of drugs in competition experiments was established using 7 concentrations of compound. Incubation times were 30 min for both saturation and displacement studies. […] Binding was initiated by the addition of 50 μl membrane homogenates (10-20 μg). The reaction was terminated by rapid filtration through presoaked (0.5% polyethyleneimine) filters using 48R Cell Brandel Harvester (Gaithersburg, Md.). Subsequently, filters were washed for 5 sec with ice cold buffer (50 mM Tris HCL, pH 7.4 at 4° C.), dried and placed into vials containing 2.5 ml of Readi-Safe (Beckman, Fullerton, Calif.), and radioactivity was measured using a Beckman LS 6500C liquid scintillation counter. […] Binding data were analyzed by computer-assisted nonlinear regression analysis (Accufit and Accucomp, Lundon Software, Chagrin Falls, Ohio).

[2] = target: T2, rat 5-HT4 (CG-7) receptor (Rattus norvegicus, UniProt Q62758); test: cAMP formation in intact Cos-7 cells transiently expressing CG-7; assay type: cell-based
T2 construct: two individual full length cDNA clones, S10-87 and S10-95, were isolated; expressed in transfected cells; host or cells: COS-7 (transient, DEAE-dextran)
Experimental: (§1) Measurement of cAMP Formation: The transiently transfected Cos-7 cells were incubated in Dulbecco's modified Eagle's medium, 5 mM theophylline, 10 mM Hepes (4-[2-Hydroxyethyl]-1-piperazineethanesulfonic acid), 10 μM pargyline, and/or appropriate concentrations of antagonists for 20 minutes at 37° C., 5% CO2. […] The media was aspirated and the reaction stopped by the addition of 100 mM HCl. The plates were stored at 4° C. for 15 minutes, centrifuged for 5 minutes, 500×g to pellet cellular debris, and the supernatant aliquotted and stored at −20° C. prior to assessment of cAMP formation by radioimmunoassay (cAMP Radioimmunoassay kit, Advanced Magnetics, Cambridge, Mass.). Radioactivity was quantitated using a Packard COBRA Auto Gamma Counter equipped with data reduction software. Functional data was fitted to a four parameter logistic equation to obtain response parameters (EC50, Emax, nH; Inplot, GraphPad, San Diego, Calif.).

[3] = target: T3, rat 5-HT4 (CG-8) receptor (Rattus norvegicus, UniProt Q62758); test: cAMP formation in intact Cos-7 cells transiently expressing CG-8; assay type: cell-based
T3 construct: two individual full length cDNA clones, S10-87 and S10-95, were isolated; expressed in transfected cells; host or cells: COS-7 (transient, DEAE-dextran)
Experimental: as §1

[4] = target: T4, rat 5-HT4 receptor S10-95 (CG-8) (Rattus norvegicus, UniProt Q62758)
Experimental: (§4) For transient expression, Cos-7 cells were transfected by the DEAE-Dextran method, using 1 μg of DNA /10^6 cells (Warden, D. and H. V. Thorne, 1968).
(§5) Membrane Preparation: Membranes were prepared from transiently transfected COS-7 cells which were grown to 100% confluence. The cells were washed twice with phosphate-buffered saline, scraped from the culture dishes into 5 ml of ice-cold phosphate-buffered saline, and centrifuged at 200×g for 5 min at 4′. The pellet was resuspended in 2.5 ml of ice-cold Tris buffer (20 mM Tris -HCl, pH 7.4 at 23°, 5 mM EDTA), and homogenized by a Wheaton tissue grinder. The lysate was subsequently centrifuged at 200×g for 5 min at 4° to pellet large fragments which were discarded. The supernatant was collected and centrifuged at 40,000×g for 20 min at 4°. The pellet resulting from this centrifugation was washed once in ice-cold Tris wash buffer and finally resuspended in a final buffer containing 50 mM Tris-HCl and 0.5 mM EDTA, pH 7.4 at 23°. Membrane preparations were kept on ice and utilized within two hr for the radioligand binding assays. Protein concentrations were determined by the method of Bradford (1976) using bovine serum albumin as the standard.
(§6) The binding profile of drugs in competition experiments was established using 7 concentrations of compound. Incubation times were 30 min for both saturation and displacement studies. […] Binding was initiated by the addition of 50 μl membrane homogenates (10-20 μg). The reaction was terminated by rapid filtration through presoaked (0.5% polyethyleneimine) filters using 48R Cell Brandel Harvester (Gaithersburg, Md.). Subsequently, filters were washed for 5 sec with ice cold buffer (50 mM Tris HCL, pH 7.4 at 4° C.), dried and placed into vials containing 2.5 ml of Readi-Safe (Beckman, Fullerton, Calif.), and radioactivity was measured using a Beckman LS 6500C liquid scintillation counter. […] Binding data were analyzed by computer-assisted nonlinear regression analysis (Accufit and Accucomp, Lundon Software, Chagrin Falls, Ohio). […]

[5] = target: T4, rat 5-HT4 receptor S10-95 (CG-8); test: [3H]5-HT radioligand binding (displacement), membranes of Cos-7 cells transiently expressing rat S10-95 (CG-8); conditions: read-out: K1; CG-8, binding data using [3H]5-HT, Table 4
Experimental: as §4, §5, §6

[6] = target: T5, rat 5-HT4 receptor S10-87 (CG-7) (Rattus norvegicus, UniProt Q62758); test: [3H]5-HT radioligand binding (saturation and displacement), membranes of Cos-7 cells transiently expressing rat S10-87 (CG-7)
Experimental: as §2, §3

[7] = target: T5, rat 5-HT4 receptor S10-87 (CG-7); test: [3H]GR113808 binding (saturation and displacement), COS-7 membranes, rat clone CG-7; parameters: two individual full length cDNA clones, S10-87 and S10-95, were isolated; expressed in transfected cells; host or cells: COS-7 (transient, DEAE-dextran)
Experimental: as §2
(§7) The binding profile of drugs in competition experiments was established using 10-12 concentrations of compound. Incubation times were 30 min for both saturation and displacement studies.

[8] = target: T4, rat 5-HT4 receptor S10-95 (CG-8); test: [3H]GR113808 binding (saturation and displacement), COS-7 membranes, rat clone CG-8; parameters: two individual full length cDNA clones, S10-87 and S10-95, were isolated; expressed in transfected cells; host or cells: COS-7 (transient, DEAE-dextran)
Experimental: as §2, §7

T4 sequence (Q62758 whole entry): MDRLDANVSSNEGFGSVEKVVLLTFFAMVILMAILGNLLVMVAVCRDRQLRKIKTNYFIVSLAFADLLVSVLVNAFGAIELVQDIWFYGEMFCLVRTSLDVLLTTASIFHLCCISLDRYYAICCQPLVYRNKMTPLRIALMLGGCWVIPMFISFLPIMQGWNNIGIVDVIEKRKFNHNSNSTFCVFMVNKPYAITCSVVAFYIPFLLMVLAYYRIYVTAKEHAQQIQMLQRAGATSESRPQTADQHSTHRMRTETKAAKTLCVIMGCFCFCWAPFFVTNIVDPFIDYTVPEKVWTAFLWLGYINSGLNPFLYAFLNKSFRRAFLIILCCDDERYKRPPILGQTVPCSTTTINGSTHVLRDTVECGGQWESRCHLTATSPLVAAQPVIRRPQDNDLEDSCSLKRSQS
T3 sequence (Q62758 whole entry): as above
T2 sequence (Q62758 1-387 isoform Q62758-2): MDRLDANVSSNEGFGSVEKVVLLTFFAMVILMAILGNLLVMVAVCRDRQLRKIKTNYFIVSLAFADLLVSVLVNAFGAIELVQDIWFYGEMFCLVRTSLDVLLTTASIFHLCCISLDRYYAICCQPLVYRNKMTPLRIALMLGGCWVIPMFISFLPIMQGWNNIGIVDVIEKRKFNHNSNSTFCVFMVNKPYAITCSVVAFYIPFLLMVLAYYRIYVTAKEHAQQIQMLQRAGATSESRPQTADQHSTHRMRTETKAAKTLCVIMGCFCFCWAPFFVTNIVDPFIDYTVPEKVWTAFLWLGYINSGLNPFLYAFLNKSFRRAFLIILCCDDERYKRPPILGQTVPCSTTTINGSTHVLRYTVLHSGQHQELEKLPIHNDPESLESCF
T5 sequence (Q62758 1-387 isoform Q62758-2): as above
T1 sequence (Q13639 whole entry): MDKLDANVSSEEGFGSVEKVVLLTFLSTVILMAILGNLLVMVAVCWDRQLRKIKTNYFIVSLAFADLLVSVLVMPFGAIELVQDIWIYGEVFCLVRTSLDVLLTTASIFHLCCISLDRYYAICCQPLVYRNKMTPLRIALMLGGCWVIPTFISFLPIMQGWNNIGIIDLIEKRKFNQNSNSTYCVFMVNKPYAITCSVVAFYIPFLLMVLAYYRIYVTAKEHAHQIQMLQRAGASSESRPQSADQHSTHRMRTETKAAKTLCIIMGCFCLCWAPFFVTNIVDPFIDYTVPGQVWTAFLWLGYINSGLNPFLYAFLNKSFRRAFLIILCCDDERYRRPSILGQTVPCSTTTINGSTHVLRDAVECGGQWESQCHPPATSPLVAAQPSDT

COc1cc(N)c(Cl)cc1C(=O)NC1CN2CCC1CC2 (stereo not drawn) [Zacopride, zacopride]
fold higher affinity for the human CG-17 clone ([1]; human CG-17 compared with rat clones): about 7 fold | Ki ([1]; read-out: Ki): 17 nM | agonist / antagonist character ([2]; CG-7, cAMP response): partial agonists | I. A. (intrinsic activity) ([2]; CG-7, maximum response normalized to 5-HT maximum = 1.0): 1.1 | fold lower affinity than cisapride ([2]; CG-7, stimulation of adenylate cyclase): ~15 fold | times less potent than 5-HT ([2]; CG-7, stimulation of basal cAMP release): ~100 fold | EC50 ([2]; CG-7, stimulation of basal cAMP release, means ± S.E.M. of three experiments, read-out: EC50): 2740 nM | agonist / antagonist character ([3]; CG-8, cAMP response): partial agonists | I. A. (intrinsic activity) ([3]; CG-8, maximum response normalized to 5-HT maximum = 1.0): 1.0 | EC50 ([3]; CG-8, stimulation of basal cAMP release, means ± S.E.M. of three experiments, read-out: EC50): 239 ± 33 nM | Ki [4]: 136 ± 5 nM | Ki [5]: 136 ± 5 nM | Ki [6]: 130 ± 10 nM | Ki ([6]; K1 (nM), CG-7, binding data using [3H]5-HT, Table 4): 130 ± 10 nM | Ki ([7]; CG-7, 0.2-0.4 nM [3H]GR113808, single experiment, read-out: Affinity estimate K1): 729 nM | BH (percentage of high affinity sites) ([7]; CG-7, [3H]GR113808): 68% | nH (Hill coefficient) ([7]; CG-7, [3H]GR113808): nH = 0.80 | Ki ([7]; CG-7, [3H]GR113808, read-out: KH (affinity for the high affinity state)): 424 nM | Ki ([7]; CG-7, [3H]GR113808, read-out: KL (affinity for the low affinity state)): 2760 nM | Ki ([8]; CG-8, 0.2-0.4 nM [3H]GR113808, single experiment, read-out: Affinity estimate K1): 820 nM | nH (Hill coefficient) ([8]; CG-8, [3H]GR113808): nH = 0.85
